Key:
[1] = system: sebaceous glands; assay: Sebaceous gland area, hamster ear (image analysis); format: in vivo, Golden Syrian hamsters; conditions: 4 weeks
Protocol: (§1) Two hundred μl of (1,25)OH2 -16-ene-5,6-trans D3 was dissolved in propylene glycol, administered daily (5 days per week) by gavage to […] Golden Syrian hamsters. The animals were sacrificed at 4 weeks and the ears were processed for histological evaluation. The area of the sebaceous glands was measured on histologically prepared cross sections of the ear by image analysis.

[2] = system: myeloid leukemia cell line (HL-60); assay: Clonogenic assay in soft agar, HL-60; format: cell-based; conditions: Homo sapiens, HL-60 cells, read-out: ED50 (effective dose that inhibited 50% colony formation)
Protocol: Cell lines. The breast cancer cell line (MCF-7), prostate cancer cell line (LNCaP) and myeloid leukemia cell line (HL-60) were maintained as follows: MCF-7 cells were maintained in Dulbecco's Modified Eagle Media (DMEM) with 10% fetal calf serum (FCS); LNCaP and HL-60 were cultured in RPMI1640 with 10% FCS; All three cell lines were maintained in a 37° C. incubator containing 5% CO2.
Vitamin D3 Compounds. The vitamin D3 compounds were dissolved in absolute ethanol at 10^-3 M as stock solution, which were stored at -20° C. and protected from light. For in vitro use, compounds were diluted in DMEM or RPMI medium. For in vivo use, compounds were diluted with phosphate buffered saline (PBS). […]. Washed single-cell suspensions of cells were enumerated and plated into 24-well flat-bottomed plates with a total of […] cells/well in a volume of 400 μl/well. The feeder layer was prepared with agar that had been equilibrated at 42° C. Prior to this step, compounds were pipetted into wells. After incubation, the colonies were counted. All experiments were done at least three times using triplicate plates per experimental point.
Effect of Vitamin D3 analogs on Clonogenic Assay. […]

[3] = system: ear total lipid fraction; assay: Total lipid fraction of hamster ear; format: in vivo, Golden Syrian hamsters; conditions: 4 weeks
Protocol: as §1
Also examined was the total lipid fraction from one of the ears (extraction by organic solvent followed by weighing the remaining lipid material).

C=C1/C(=C/C=C2\CCC[C@]3(C)C([C@H](C)CCCC(C)(C)O)=CC[C@@H]23)C[C@@H](O)C[C@@H]1O [1,25(OH)2-16-ene-5,6-trans-D3, 1,25-Dihydroxy-16-ene-5,6-trans-cholecalciferol] was tested, and the “sebaceous gland area, % Change from Control” value (“sebaceous gland area, % Change” for short) ([1]; 0.01 μg/day gavage) was -5%, the “sebaceous gland area, % Change” value ([1]; 0.1 μg/day gavage) was -23% and the “sebaceous gland area, % Change” value ([1]; 1 μg/day gavage) was -50%. For the same molecule, the “sebaceous gland area, % Change” value ([1]; 10 μg/day gavage) was -50%, the IC50 [2] was 0.03 nM and the “total lipid fraction, % Change from Control” value (shortened to “total lipid fraction, % Change”) ([3]; 0.01 μg/day gavage) was -26%. For the same molecule, the “total lipid fraction, % Change” value ([3]; 0.1 μg/day gavage) was -25%, the “total lipid fraction, % Change” value ([3]; 1 μg/day gavage) was -37% and the “total lipid fraction, % Change” value ([3]; 10 μg/day gavage) was -56%.

Source: patent US6331642A, “Vitamin D3 analogs” (Hoffmann-La Roche Inc., priority 2000, dated 2001)
